Assay results taken from patent US11230526B1, “Cylcoalkenyl derivatives useful as agonists of the GPR120 and/or GPR40 receptors” (Janssen Pharmaceutica NV, priority 2018, dated 2022).

Columns and labels:
Type in all cases: cell-based
Human GPR120 short form [1] = target: T1, Human GPR120 short form (Homo sapiens, UniProt Q5NUL3); assay: Human GPR120 calcium flux assay, Procedure Calcium A (2500 cells/well)
T1 construct: expressed in transfected cells
T1 sequence (Q5NUL3 1-361): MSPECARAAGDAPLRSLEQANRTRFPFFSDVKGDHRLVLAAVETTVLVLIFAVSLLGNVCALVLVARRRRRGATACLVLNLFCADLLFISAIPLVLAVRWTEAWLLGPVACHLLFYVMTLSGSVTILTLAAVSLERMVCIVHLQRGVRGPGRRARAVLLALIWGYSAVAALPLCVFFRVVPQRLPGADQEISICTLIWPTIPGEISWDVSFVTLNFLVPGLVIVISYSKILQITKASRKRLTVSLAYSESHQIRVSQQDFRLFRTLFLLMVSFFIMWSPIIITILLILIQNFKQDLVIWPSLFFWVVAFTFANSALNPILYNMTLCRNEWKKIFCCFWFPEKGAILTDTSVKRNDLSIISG
In short: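 HEK293 cells stably expressing human GPR120 short isoform (NM_001195755.1), 2500 cells/well, serum-starved 1 h at 37 °C and loaded with Fluo-4 NW plus probenecid. FLIPR fluorescence read for 300 s after compound addition; response = Fmax−Fmin. EC50 from four-parameter concentration–response fit.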

[2] = target: T2, short form of the GPR120 receptor (Homo sapiens, UniProt Q5NUL3); assay: Human GPR120 DiscoveRx PathHunter Beta-Arrestin assay, Procedure β-arrestin B
T2 construct: host or cells: PathHunter CHO-K1 GPR120S β-Arrestin Cell Line
T2 sequence (P32121 whole entry partner, one chain of several): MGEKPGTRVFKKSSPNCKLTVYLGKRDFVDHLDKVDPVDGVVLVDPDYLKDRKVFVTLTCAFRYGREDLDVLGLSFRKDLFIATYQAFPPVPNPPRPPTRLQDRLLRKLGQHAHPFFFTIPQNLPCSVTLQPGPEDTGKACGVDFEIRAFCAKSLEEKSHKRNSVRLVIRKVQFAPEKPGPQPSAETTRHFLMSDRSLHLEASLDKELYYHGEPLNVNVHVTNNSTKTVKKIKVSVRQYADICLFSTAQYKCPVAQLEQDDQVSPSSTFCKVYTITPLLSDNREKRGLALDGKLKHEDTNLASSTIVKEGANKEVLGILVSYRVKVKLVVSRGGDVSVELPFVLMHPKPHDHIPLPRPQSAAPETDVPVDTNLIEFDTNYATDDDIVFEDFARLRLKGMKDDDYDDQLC
Text: Human GPR120 DiscoveRx PathHunter® Beta-Arrestin Assay Assay Principle:
The binding of an agonist (medium/long chain fatty acids or small molecule agonists) to the G-protein-coupled receptor GPR120 activates phospholipase C, leading to release of intracellular Ca^+2 through the generation of inositol 1,4,5-trisphosphate (InsP3 or IP3). GPR120 activation can also trigger intracellular signaling via recruitment of Beta-Arrestin. In the present method, agonist-induced activation of the human GPR120 receptor is monitored through the use of PathHunter® CHO-K1 GPR120 Beta-Arrestin Cell Line engineered by DiscoveRx, as detailed below. The cell lines are designed to co-express both the ProLink/Enzyme Donor (PK)-tagged GPCR and the Enzyme […] (EA)-tagged Beta-Arrestin fusion proteins. Upon GPR120 receptor stimulation/activation, the EA-tagged Beta-Arrestin portion is translocated to the tagged receptor, where the two enzyme fragments are brought within close proximity. Under these conditions, these fragments can interact and form an active Beta-gal enzyme complex through Enzyme Fragment Complementation (EFC). This active Beta-gal complex can enzymatically hydrolyse the substrate to produce a detectable light signal; therefore, activation as a function of agonist concentration can be expressed as an EC50 value to determine relative compound activities. This in vitro assay therefore serves to assess compound agonist activity of the GPR120.
In Procedure β-arrestin B the cells used were PathHunter® CHO-K1 GPR120S β-Arrestin Cell Line, expressing the short form of the GPR120 receptor (Accession #[…]), with 5000 cells/well.
The selected CHO-K1 GPR120 β-Arrestin cells were cultured in Ham's F12 media supplemented with 10% fetal bovine serum (FBS), 1% Glutamine, 1×p/s, 800 μg/mL G418 and 300 μg/mL Hygromycin B (for selection). Cell stocks were maintained and grown in a sub-confluent state using standard cell culture procedures. The day before the experiment, the cells were harvested with non-enzymatic cell dissociation buffer and re-suspended in complete growth media at the desired concentration. A Corning 384-plate was then seeded with the proper number of cells in a volume of 25 μL, per well. The seeded plates were incubated overnight at 37° C.
On the day of the experiment, the Assay Buffer containing (a) HBSS with Ca^++ and Mg^++, (b) 20 mM HEPES, and (c) 0.1% BSA stabilizer (pH 7.4) was prepared. The growth medium was gently removed from the cell plates and 20 μL of Assay Buffer added to each well. The plate was then incubated at 37° C. for 60 min. Test compounds were serially diluted in Assay Buffer to desired concentrations (more particularly to one or more of the following μM concentrations: 25, 12.5, 6.25, 3.12, 1.56, 0.78, 0.39, 0.19, 0.10, 0.05, 0.02, 0.01). Five μL of compound dilution was then added to each well and the plate incubated at 37° C. for 90 min. The detection reagents were prepared according to the manufacture's instruction. Twelve μL of the detection reagents were added to each well and the plate incubated at room temperature for 60 min.
The plates were read on an EnVision instrument, using Protocol name: Luminescence, Plate type: 384 Costar, Measurement height: 3 mm, Measurement time: 1 s, Aperture: 384 Plate aperture. The % Activity relative to the positive control was calculated using the following equation:
The % Activity values were plotted versus the concentration of test compound and fitted to a sigmoidal dose-response curve with a Hill slope=1 (fixed value) using nonlinear regression with GraphPad Prism 5.0 to calculate the EC50 values. The Fitting Equation was: Y=Bottom+(Top-Bottom)/(1+10^((Log EC50−X)*HillSlope)), where X is the log of the concentration and Y is the response.

Human GPR120 short form [3] = target: T1, Human GPR120 short form; assay: Human GPR120 calcium flux assay, Procedure Calcium B (4200 cells/well)
In short: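 HEK293 cells stably expressing human GPR120 (NM_001195755.1), 4200 cells/well, starved 1 h and loaded with Fluo-4 NW plus probenecid. Ligand-evoked calcium flux read on FLIPR for 300 s after a 10 s baseline. RFU = Fmax−Fmin; EC50 from four-parameter concentration-response fit.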

human GPR40 = target: T3, human GPR40 (Homo sapiens, UniProt O14842); assay: GPR40 calcium flux assay, human GPR40; conditions: HEK293 cells stably expressing GPR40; table does not say human or rat
T3 construct: expressed in transfected cells
T3 sequence (O14842 whole entry): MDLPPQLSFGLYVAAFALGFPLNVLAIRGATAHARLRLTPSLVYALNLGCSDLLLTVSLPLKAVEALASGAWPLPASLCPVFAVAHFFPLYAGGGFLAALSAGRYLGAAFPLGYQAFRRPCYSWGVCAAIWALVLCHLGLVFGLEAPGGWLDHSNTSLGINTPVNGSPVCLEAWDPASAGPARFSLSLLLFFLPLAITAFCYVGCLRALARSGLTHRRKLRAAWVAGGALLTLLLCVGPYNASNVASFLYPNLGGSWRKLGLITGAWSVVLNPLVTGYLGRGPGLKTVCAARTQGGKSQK
In short: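 Cells preincubated 1 h at 37° C. in HBSS, 20 mM HEPES, 0.1% BSA, then Fluo 8 calcium dye 30 min at 37° C. and 15 min at room temperature.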

[4] = target: T4, long form of human GPR120 (Homo sapiens, UniProt Q5NUL3); assay: Human GPR120 DiscoveRx PathHunter Beta-Arrestin assay, Procedure β-arrestin A
T4 construct: host or cells: PathHunter CHO-K1 GPR120 β-Arrestin Cell Line
T4 sequence (Q5NUL3 1-377 isoform Q5NUL3-1): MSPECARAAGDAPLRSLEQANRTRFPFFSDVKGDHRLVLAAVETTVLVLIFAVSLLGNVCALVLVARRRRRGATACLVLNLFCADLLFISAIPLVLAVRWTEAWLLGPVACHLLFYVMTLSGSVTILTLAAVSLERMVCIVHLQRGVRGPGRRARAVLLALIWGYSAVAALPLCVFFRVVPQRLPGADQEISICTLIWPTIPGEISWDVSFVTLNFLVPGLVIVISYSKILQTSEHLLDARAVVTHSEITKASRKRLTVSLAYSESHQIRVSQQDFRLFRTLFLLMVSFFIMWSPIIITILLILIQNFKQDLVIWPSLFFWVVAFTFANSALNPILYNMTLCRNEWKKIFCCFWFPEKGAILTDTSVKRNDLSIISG
T4 sequence (P32121 whole entry partner): as the sequence (P32121 whole entry partner, one chain of several) above
In short: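 PathHunter CHO-K1 cells expressing long-form human GPR120 (3000/well) were seeded overnight. They were then preincubated 60 min in HBSS with 20 mM HEPES and 0.1% BSA, pH 7.4, and exposed to compound for 90 min at 37 °C. β-Arrestin recruitment was read as β-gal complementation luminescence. EC50 came from % activity versus positive control, Hill slope fixed at 1.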

| EC50 (Human GPR120 short form [1]) | EC50 [2] | EC50 (Human GPR120 short form [3]) | EC50 (human GPR40) | EC50 [4] | Structure (SMILES) |
| --- | --- | --- | --- | --- | --- |
| 0.409 µM | 0.709 µM | 0.183 µM | – | – | CSc1ccc(C2=C(COc3ccc(CCC(=O)O)c(C)c3C)CCC2)cc1 [Compound 50, 3-[2,3-dimethyl-4-[[2-(4-methylsulfanylphenyl)cyclopenten-1-yl]methoxy]phenyl]Propanoic Acid] |
| 0.793 µM | 0.246 µM | 0.282 µM | – | – | Cc1c(CCC(=O)O)ccc(OCC2=C(c3ccc(C(C)C)cc3)CCC2)c1C [Compound 55, 3-[4-[[2-(4-isopropylphenyl)cyclopenten-1-yl]methoxy]-2,3-dimethyl-phenyl]Propanoic Acid] |
| 0.324 µM | 0.085 µM | 0.037 µM | – | – | Cc1c(CCC(=O)O)ccc(OCC2=C(c3ccc(Br)cc3)CCC2)c1C [Compound 56, 3-[4-[[2-(4-bromophenyl)cyclopenten-1-yl]methoxy]-2,3-dimethyl-phenyl]Propanoic Acid] |
| 0.527 µM | 0.258 µM | 0.05 µM | – | – | Cc1c(CCC(=O)O)ccc(OCC2=C(c3ccc(I)cc3)CCC2)c1C [Compound 57, 3-[4-[[2-(4-iodophenyl)cyclopenten-1-yl]methoxy]-2,3-dimethyl-phenyl]Propanoic Acid] |
| 0.591 µM | 0.171 µM | 0.195 µM | – | – | Cc1c(CCC(=O)O)ccc(OCC2=C(c3ccc(C(F)(F)F)cc3)CCC2)c1C [Compound 75, 3-[2,3-dimethyl-4-[[2-[4-(trifluoromethyl)phenyl]cyclopenten-1-yl]methoxy]phenyl]Propanoic Acid] |
| – | 0.045 µM | 0.01 µM | > 5 µM | 0.035 µM | [2H]C(C(=O)O)C([2H])c1ccc(OCC2=C(c3ccc(Cl)cc3)CCC2)c(C)c1 (centres unmarked) [Compound 126-D, 3-(4-((2-(4-chlorophenyl)cyclopent-1-en-1-yl)methoxy)-3-methylphenyl)Propanoic-2,3-d2 Acid] |
| – | 0.041 µM | 0.034 µM | > 5 µM | 0.087 µM | O=C(O)CCc1ccc(OCC2=C(c3ccc(Cl)cc3)CCC2)c(I)c1 [Compound 130, 3-[3-iodo-4-[[2-(4-chlorophenyl)cyclopenten-1-yl]methoxy]phenyl]Propanoic Acid] |
| 1.01 µM | 0.625 µM | 0.385 µM | – | – | Cc1c(CCC(=O)O)ccc(OCC2=C(c3ccc(C(F)(F)F)cc3)CCCC2)c1C [Compound 460, 3-[2,3-dimethyl-4-[[2-[4-(trifluoromethyl)phenyl]cyclohexen-1-yl]methoxy]phenyl]Propanoic Acid] |
| 0.462 µM | 0.478 µM | 0.066 µM | – | – | Cc1ccc(C2=C(COc3ccc(CCC(=O)O)c(C)c3C)CCCC2)cc1 [Compound 462, 3-[2,3-dimethyl-4-[[2-(p-tolyl)cyclohexen-1-yl]methoxy]phenyl]Propanoic Acid] |
| 0.234 µM | 0.385 µM | 0.079 µM | – | – | Cc1c(CCC(=O)O)ccc(OCC2=C(c3ccc(F)cc3)CCCC2)c1C [Compound 480, 3-[4-[[2-(4-fluorophenyl)cyclohexen-1-yl]methoxy]-2,3-dimethyl-phenyl]Propanoic Acid] |
| 0.25 µM | 0.475 µM | 0.134 µM | – | – | Cc1c(CCC(=O)O)ccc(OCC2=C(c3ccc(Br)cc3)CCCC2)c1C [Compound 481, 3-[4-[[2-(4-bromophenyl)cyclohexen-1-yl]methoxy]-2,3-dimethyl-phenyl]Propanoic Acid] |
| 0.406 µM | 0.126 µM | 0.091 µM | – | – | Cc1c(CCC(=O)O)ccc(OCC2=C(c3cccs3)CCCC2)c1C [Compound 482, 3-[2,3-dimethyl-4-[[2-(2-thienyl)cyclohexen-1-yl]methoxy]phenyl]Propanoic Acid] |
| 0.576 µM | 0.717 µM | 0.185 µM | – | – | CSc1ccc(C2=C(COc3ccc(CCC(=O)O)c(C)c3C)CCCC2)cc1 [Compound 492, 3-[2,3-dimethyl-4-[[2-(4-methylsulfanylphenyl)cyclohexen-1-yl]methoxy]phenyl]Propanoic Acid] |
